Source: patent US12156922B2, “Copper-containing complex and uses thereof” (Bar-Ilan University, priority 2017, dated 2024)

Columns and labels:
Ctr1 = target: T1, Ctr1 (Homo sapiens, UniProt O15431, DEL121-121); assay: EPR of Cu(II) coordination after exposure of complex to purified Ctr1; assay type: binding; details: 120 K, 0.5 mM
T1 construct: intein (cleaved yes); made in house; host or cells: Escherichia coli BL21 (DE3)
T1 sequence (O15431 with tags, fused parts or gaps DEL121-121): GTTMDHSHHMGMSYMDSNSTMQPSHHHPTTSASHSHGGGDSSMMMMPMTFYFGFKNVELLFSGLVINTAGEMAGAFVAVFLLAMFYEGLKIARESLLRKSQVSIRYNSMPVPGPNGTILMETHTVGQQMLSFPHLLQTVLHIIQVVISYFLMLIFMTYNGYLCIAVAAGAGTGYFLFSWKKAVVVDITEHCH
Description: Human Ctr1 (hCtr1) was obtained by expression and purification of a protein (SEQ ID NO: 43), using a pYTB12-hCTR1 plasmid, in which the full length hCTR1 sequence was cloned into the pYTB12 plasmid. This construct encodes for a fusion protein composed of hCTR1, intein, and a chitin-binding domain. The plasmid was transformed into the Escherichia coli strain BL21 (DE3).
In order to assess the behavior of a Cu(II)-ligand-peptide complex under physiological conditions, the coordination of Cu(II) was investigated by EPR spectroscopy following exposure of a Cu(II)-IDA-Met1 complex (prepared as described in Example 2) to the copper transporter Ctr1 (in a purified state), which plays a central role in the cellular copper cycle. For comparison, the behavior of Cu(II)-IDA (without a peptide) was also investigated under such conditions. EPR spectra were interpreted by comparison to simulated spectra prepared using the EasySpin™ computational package.

[1] = EPR of ATSM-Cu(II) complex after addition of ligands; assay type: physicochemical; details: 0.1 mM ATSM-Cu(II), 4 molar equivalents of ligand; 30% DMSO, 0.1 M phosphate buffer (pH 7.4)
Method: (§1) The stability of the ATSM-Cu(II) complex was tested by using UV-visible spectrophotometry. […] In order to confirm the dissociation of ATSM-Cu(II) complex or the formation of copper complex with ligands or copper chelation by ligands, the effect of ligands on ATSM-Cu(II) was also tested using electron paramagnetic resonance (EPR) spectroscopy.
The stability of ASTM-Cu(II) complex was further studied by EPR spectroscopy. 0.1 mM of ATSM-Cu(II) complex was prepared in 30% DMSO and 0.1 M phosphate buffer (pH 7.4).

[2] = UV-visible titration of ATSM-Cu(II) complex with Cu(II) chelators and peptides (311 nm / 465 nm); assay type: physicochemical; details: 30% DMSO in 0.1 M phosphate buffer (pH 7.4)
Method: as §1
Stock solutions of CuCl2 (10 mM), 1,10-phenanthroline (10 mM), IDA (10 mM), and L-histidine (10 mM), NTA (5 mM) and Pep1 (5 mM) were prepared in ultrapure water (Milli-Q®). Stock solutions (1 mM) of HAGAH, HGGH and HTGMK peptides were prepared by dissolution in 0.1 M phosphate buffer (pH 7.4).
In order to facilitate the solubility of ATSM-Cu(II) complex, all the measurements were carried out in 30% DMSO in 0.1 M phosphate buffer (pH 7.4), at physiological conditions.

DA3 breast cancer cells = assay: Cu(I) levels in cells by bicinchoninic acid (BCA) absorption at 562 nm; assay type: cell-based
Method: The interaction between cells and Cu(II)-ligand-peptide complexes under various conditions was investigated by contacting DA3 breast cancer cells with a Cu(II)-IDA-Cys1 complex (prepared as described in Example 2) or with CuCl2 as a control. The concentration of reduced copper (Cu(I)) was then determined by complexation with bicinchoninic acid (BCA) and evaluating the concentration of BCA-Cu(I) by measuring absorption at a wavelength of 562 nm.

[3] = UV-visible spectrophotometry of Tyr-peptide binding to Cu(II), absorption at 276 nm
Method: In order to compare affinity of peptides to Cu(II)-ligand-peptide complexes, UV-visible spectrophotometry was used to assess the degree of incorporation of Cys1-Tyr (SEQ ID NO: 51) and Met1-Tyr (SEQ ID NO: 50) peptides into Cu(II)-containing complexes, at various concentrations of Cu(II), IDA and peptide. The spectrophotometry focused on changes in Tyr residue absorption at about 276 nm. […]
In addition, 1 mM of peptide (16.6 μl) with 1 mM CuCl2 (12.5 μl) in ultrapure water (258.4 μl) was titrated with various concentrations (ranging from 0.25 to 1 mM or 0.25 to 1.25 mM) of IDA.

Compound: O=C([O-])CNCC(=O)[O-].[Cu+2] [Cu(II)-IDA]
- coordination of Cu(II) in the presence of Ctr1 (Ctr1): becomes coordinated to the Ctr1

Compound: N[C@@H](Cc1c[nH]cn1)C(=O)O [L-His, L-histidine]
- effect on electron paramagnetic spectrum of ATSM-Cu(II) complex [1]: induced significant changes
- molar equivalents sufficient/needed to remove copper from the ATSM-Cu(II) complex [2]: at least four molar equivalents

Compound: O=C(O)CN(CC(=O)O)CC(=O)O [NTA, nitrilotriacetic acid]
- effect on electron paramagnetic spectrum of ATSM-Cu(II) complex [1]: induced significant changes
- molar equivalents sufficient/needed to remove copper from the ATSM-Cu(II) complex [2]: at least four molar equivalents

Compound: [Cl][Cu][Cl] [free Cu(II) ions, CuCl2]
- time for which Cu(I) concentration in cells is maintained (DA3 breast cancer cells; 1.5 mM): depleted from the cell within several hours
- Cu(I) ions in cells, hypoxic vs normoxic conditions (DA3 breast cancer cells; 1.5 mM, 2, 6 or 24 hours after exposure): more Cu(I) ions are observed in cells under hypoxic conditions than under normoxic conditions
- entry of copper into cells in the presence of Ag(I) ions, a Ctr1 inhibitor (DA3 breast cancer cells; 3 mM Ag(I) ions, 1.5 mM copper species): not blocked

Compound: KSMAACAM (Cys1 peptide sequence)
- affinity to Cu(II), comparison of peptides ([3]; from Cys1-Tyr and Met1-Tyr titrations): considerably stronger affinity to Cu(II) than does Met1

Compound: MYGMKGMSY [Met1-Tyr]
- IDA-dependent change in absorption at 276 nm ([3]; 1 mM peptide, 1 mM CuCl2, titrated with IDA): larger IDA-dependent change in absorption than did Cys1-Tyr
